Data: ChEMBL document CHEMBL1201861, “Genomics of Drug Sensitity in Cancer screening data, Wellcome Trust Sanger Institute”
Where a name gives a salt, the structure may show the parent alone.

Assays:
H9 = assay: cells; type: functional, cell-based, Homo sapiens
Description: SANGER: Inhibition of human H9 cell growth in a cell viability assay.

NCI-H1666 = assay: cells; type: functional, cell-based, Homo sapiens;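 also: growth inhibition of the cell line, read out with a cell viability assay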
Description: SANGER: Inhibition of human NCI-H1666 cell growth in a cell viability assay.

RH-18 = assay: cells; type: functional, cell-based, Homo sapiens;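 also: growth inhibition of human RH-18 cells, read out with a cell viability assay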
Description: SANGER: Inhibition of human RH-18 cell growth in a cell viability assay.

TGBC11TKB = assay: cells; type: functional, cell-based, Homo sapiens;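 also: growth inhibition of human TGBC11TKB cells, measured by a cell viability assay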
Description: SANGER: Inhibition of human TGBC11TKB cell growth in a cell viability assay.

CHP-134 = assay: SANGER: Inhibition of human CHP-134 cell growth in a cell viability assay.; type: functional, cell-based
Calu-1 = assay: SANGER: Inhibition of human Calu-1 cell growth in a cell viability assay.; type: functional, cell-based
Caov-3 cell line = assay: cells; type: functional, cell-based, Homo sapiens;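 also: cell growth inhibition read out by a viability assay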
Description: SANGER: Inhibition of human Caov-3 cell growth in a cell viability assay.

EW-7 = assay: SANGER: Inhibition of human EW-7 cell growth in a cell viability assay.; type: functional, cell-based
HCC1143 = assay: cells; type: functional, cell-based, Homo sapiens;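 also: growth inhibition of human HCC1143 cells, read out with a cell viability assay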
Description: SANGER: Inhibition of human HCC1143 cell growth in a cell viability assay.

IPC-298 = assay: SANGER: Inhibition of human IPC-298 cell growth in a cell viability assay.; type: functional, cell-based
MDA-MB-468 = assay: cells; type: functional, cell-based, Homo sapiens
Description: SANGER: Inhibition of human MDA-MB-468 cell growth in a cell viability assay.

MFE-296 = assay: SANGER: Inhibition of human MFE-296 cell growth in a cell viability assay.; type: functional, cell-based
PLC-PRF-5 = assay: cells; type: functional, cell-based, Homo sapiens;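 also: growth inhibition of human PLC-PRF-5 cells, read out with a viability assay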
Description: SANGER: Inhibition of human PLC-PRF-5 cell growth in a cell viability assay.

RT-4 = assay: SANGER: Inhibition of human RT4 cell growth in a cell viability assay.; type: functional, cell-based
SK-CO-1 = assay: cells; type: functional, cell-based, Homo sapiens;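 also: growth inhibition of SK-CO-1 cells, determined by a viability readout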
Description: SANGER: Inhibition of human SK-CO-1 cell growth in a cell viability assay.

SNG-M = assay: cells; type: functional, cell-based, Homo sapiens
Description: SANGER: Inhibition of human SNG-M cell growth in a cell viability assay.

SNU-475 = assay: cells; type: functional, cell-based, Homo sapiens
Description: SANGER: Inhibition of human SNU-475 cell growth in a cell viability assay.

TT = assay: cells; type: functional, cell-based, Homo sapiens
Description: SANGER: Inhibition of human TT cell growth in a cell viability assay.

CCF-STTG1 = assay: cells; type: functional, cell-based, Homo sapiens;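 also: growth inhibition of human CCF-STTG1 cells, determined with a cell viability read-out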
Description: SANGER: Inhibition of human CCF-STTG1 cell growth in a cell viability assay.

COLO 205 = assay: cells; type: functional, cell-based, Homo sapiens
Description: SANGER: Inhibition of human COLO-205 cell growth in a cell viability assay.

EW-12 = assay: SANGER: Inhibition of human EW-12 cell growth in a cell viability assay.; type: functional, cell-based
NCI-H2107 = assay: SANGER: Inhibition of human NCI-H2107 cell growth in a cell viability assay.; type: functional, cell-based
ECC12 = assay: cells; type: functional, cell-based; conditions: Homo sapiens
Description: SANGER: Inhibition of human ECC12 cell growth in a cell viability assay.

Nc1cccc2c1CN(C1CCC(=O)NC1=O)C2=O (centres undefined) [LENALIDOMIDE]
IC50 (H9; Homo sapiens, H9): > 5 µM
IC50 (NCI-H1666; Homo sapiens, NCI-H1666): > 5 µM
IC50 (RH-18; Homo sapiens, Rh18): > 5 µM
IC50 (TGBC11TKB; Homo sapiens, TGBC11TKB): > 5 µM

CN(C)C(=N)NC(=N)N [METFORMIN]
IC50 (H9; Homo sapiens, H9): 7140 µM
IC50 (TGBC11TKB; Homo sapiens, TGBC11TKB): > 20000 µM

CC1(C)CNc2cc(NC(=O)c3cccnc3NCc3ccncc3)ccc21 [MOTESANIB]
IC50 (H9; Homo sapiens, H9): > 2 µM
IC50 (NCI-H1666; Homo sapiens, NCI-H1666): > 2 µM
IC50 (RH-18; Homo sapiens, Rh18): > 2 µM
IC50 (TGBC11TKB; Homo sapiens, TGBC11TKB): > 2 µM
IC50 (CHP-134): > 2 µM

Cc1cn(-c2cc(NC(=O)c3ccc(C)c(Nc4nccc(-c5cccnc5)n4)c3)cc(C(F)(F)F)c2)cn1 [NILOTINIB]
IC50 (H9; Homo sapiens, H9): > 2 µM
IC50 (NCI-H1666; Homo sapiens, NCI-H1666): > 2 µM
IC50 (RH-18; Homo sapiens, Rh18): > 2 µM
IC50 (TGBC11TKB; Homo sapiens, TGBC11TKB): > 2 µM

COC1=CC(c2cc3ccccc3[nH]2)=N/C1=C\c1[nH]c(C)cc1C [OBATOCLAX MESYLATE]
IC50 (Calu-1; Homo sapiens, Calu-1): 0.313 µM
IC50 (Caov-3 cell line; Homo sapiens, Caov-3): 1.69 µM
IC50 (EW-7; Homo sapiens, EW-7): < 0.0625 µM
IC50 (HCC1143; Homo sapiens, HCC1143): 0.174 µM
IC50 (IPC-298; Homo sapiens, IPC-298): < 0.0625 µM
IC50 (MDA-MB-468; Homo sapiens, MDA-MB-468): 0.917 µM
IC50 (MFE-296; Homo sapiens, MFE-296): 0.139 µM
IC50 (PLC-PRF-5; Homo sapiens, PLC-PRF-5): 1.15 µM
IC50 (RT-4; Homo sapiens, RT-4): 1.6 µM
IC50 (SK-CO-1; Homo sapiens, SK-CO-1): 2.62 µM
IC50 (SNG-M; Homo sapiens, SNG-M): < 0.0625 µM
IC50 (SNU-475; Homo sapiens, SNU-475): > 16 µM
IC50 (TT; Homo sapiens, TT): > 16 µM
IC50 (CCF-STTG1; Homo sapiens, CCF-STTG1): 0.926 µM
IC50 (COLO 205; Homo sapiens, COLO 205): 0.0572 µM

CC(=O)O[C@H]1C(=O)[C@@]2(C)[C@H]([C@H](OC(=O)c3ccccc3)[C@]3(O)C[C@H](OC(=O)[C@H](O)[C@@H](NC(=O)c4ccccc4)c4ccccc4)C(C)=C1C3(C)C)[C@]1(OC(C)=O)CO[C@@H]1C[C@@H]2O [PACLITAXEL]
IC50 (EW-12): > 0.102 µM
IC50 (NCI-H2107): > 0.102 µM

CCN(CC)CCCCNc1ncc2cc(-c3cc(OC)cc(OC)c3)c(NC(=O)NC(C)(C)C)nc2n1 [PD-173074]
IC50 (H9; Homo sapiens, H9): > 2 µM
IC50 (NCI-H1666; Homo sapiens, NCI-H1666): > 2 µM
IC50 (RH-18; Homo sapiens, Rh18): > 2 µM
IC50 (TGBC11TKB; Homo sapiens, TGBC11TKB): > 2 µM
IC50 (CHP-134): > 2 µM

N[C@@H](CSC(c1ccccc1)(c1ccccc1)c1ccccc1)C(=O)O [S-TRITYL-L-CYSTEINE]
IC50 (EW-12): > 5.12 µM
IC50 (NCI-H2107): > 5.12 µM

CC[C@H](CO)Nc1nc(NCc2ccccc2)c2ncn(C(C)C)c2n1 [SELICICLIB]
IC50 (ECC12): > 16 µM
IC50 (EW-12): > 16 µM
IC50 (NCI-H2107): > 16 µM

Cn1cnc2c(F)c(Nc3ccc(Br)cc3Cl)c(C(=O)NOCCO)cc21 [SELUMETINIB]
IC50 (H9; Homo sapiens, H9): 0.0229 µM
IC50 (RH-18; Homo sapiens, Rh18): > 4 µM
IC50 (TGBC11TKB; Homo sapiens, TGBC11TKB): > 4 µM
IC50 (CHP-134): > 4 µM

CCN(CC)CCNC(=O)c1c(C)[nH]c(/C=C2\C(=O)Nc3ccc(F)cc32)c1C [SUNITINIB]
IC50 (EW-12): > 8 µM
IC50 (NCI-H2107): > 8 µM

CO[C@H]1C[C@@H]2CC[C@@H](C)[C@@](O)(O2)C(=O)C(=O)N2CCCC[C@H]2C(=O)O[C@H]([C@H](C)C[C@@H]2CC[C@@H](OC(=O)C(C)(CO)CO)[C@H](OC)C2)CC(=O)[C@H](C)/C=C(\C)[C@@H](O)[C@@H](OC)C(=O)[C@H](C)C[C@H](C)/C=C/C=C/C=C/1C [TEMSIROLIMUS]
IC50 (H9; Homo sapiens, H9): 0.00488 µM
IC50 (NCI-H1666; Homo sapiens, NCI-H1666): > 0.2 µM
IC50 (RH-18; Homo sapiens, Rh18): > 0.2 µM
IC50 (TGBC11TKB; Homo sapiens, TGBC11TKB): > 0.2 µM

CS(=O)(=O)c1ccc(C(=O)Nc2ccc(Cl)c(-c3ccccn3)c2)c(Cl)c1 [VISMODEGIB]
IC50 (NCI-H1666; Homo sapiens, NCI-H1666): > 10 µM
IC50 (RH-18; Homo sapiens, Rh18): > 10 µM
IC50 (TGBC11TKB; Homo sapiens, TGBC11TKB): > 10 µM

BLEOMYCIN
IC50 (Calu-1; calu-1): 5.14 µM
IC50 (Caov-3 cell line; caov-3): 20.5 µM
IC50 (EW-7; ew-7): 3.06 µM
IC50 (HCC1143; hcc1143): 27.2 µM
IC50 (IPC-298; ipc-298): 2.21 µM
IC50 (MDA-MB-468; mda-mb-468): 67.6 µM
IC50 (MFE-296; mfe-296): 0.153 µM
IC50 (PLC-PRF-5; plc-prf-5): 281 µM
IC50 (RT-4; rt-4): 0.00586 µM
IC50 (SK-CO-1; sk-co-1): 0.247 µM
IC50 (SNG-M; sng-m): 0.831 µM
IC50 (SNU-475; snu-475): 67.5 µM
IC50 (TT; tt): 59.2 µM
IC50 (CCF-STTG1; ccf-sttg1): 4.56 µM
IC50 (COLO 205; colo-205): 3.24 µM

CISPLATIN
IC50 (H9; h9): 3.65 µM
IC50 (NCI-H1666; nci-h1666): 56.5 µM
IC50 (RH-18; rh-18): 353 µM
IC50 (TGBC11TKB; tgbc11tkb): 29.4 µM
